Measured values taken from paper PMC7203245, “Lacosamide intake during pregnancy increases the incidence of foetal malformations and symptoms associated with schizophrenia in the offspring of mice” (Scientific Reports, 2020).

Assay: LCM and related compounds (RC) in embryos and mothers' serum by high-resolution MS/MSe
Format: in vivo, mice
Conditions: for presence in the serum of mothers: dams given 10-120 mg/kg LCM
Protocol: Samples were extracted as described previously[25] with slight modifications. Briefly, embryos were rinsed with cold saline and ultrapure water, and their wet-weight was determined. […] The mixture was vortexed vigorously for 3 min and centrifuged at 13,000 g for 5 min. The supernatant was transferred to a new Eppendorf tube and evaporated to dryness in a stream of nitrogen gas. The residue was reconstituted with 50 µL of LC-MS Ultrapure water, vortexed for 20 s and centrifuged at 13,000 g for 5 min. The supernatant was transferred to a conic micro insert to be injected onto the UHPLC system.
MS spectra data were collected between m/z 50 and 1000, and MS/MS spectra were registered between 50-300 Da. […] The MS^e procedure was used to identify metabolites in positive ionization mode. UPLC–QTOF-MS^e detection collects data using two scan functions, providing fragment ion information without precursor ion selection. A characteristic m/z in the low energy function allows identification through the fragment ions obtained with the high collision energy function. Two functions were acquired at different collision energies: a low energy function obtained at 2 eV; and a high-energy function obtained using a collision energy ramp ranging from 15 to 30 eV and spectra data collected between m/z 50 and 800. The data station operating the software was a MassLynx version 4.1, while metabolites were identified by means of Metabolynx XS (Waters, Micromass, Manchester, UK).
In this work the following routes were selected for these searches: phase I metabolites Reduction (+H2), Hydroxylation (O), Hydration (+H2O), 2xHydroxylation (+O2), Deacetylation (-C2H2O) and Demethylation (-CH2); and phase II metabolites Acetylation (+C2H2O) and Glucuronide (+C6H8O6).

Structure (SMILES): CC(=O)N[C@H](CO)C(=O)NCc1ccccc1 [desmethylacosamide]
- presence in samples from dams (dams that received 120 mg/kg LCM): some samples from the corresponding dams contained

Structure (SMILES): COC[C@@H](N)C(=O)NCc1ccccc1 [deacetylacosamide]
- presence in samples from mothers (mothers who received 10 mg/kg LCM): contained

Structure (SMILES): NCc1ccccc1 [RC 1]
- Embryos in which the LCM compound is present (Maternal Dose 10 mg/kg): Embryo1 and 2
- presence in the serum of mothers: detected in the serum of all mothers
- number of embryos in which detected (embryo from a dam treated with 10 mg/kg LCM): 1

Structure (SMILES): CC(=O)N[C@H](CO)C(=O)NCc1ccccc1 [RC 2, O-Demethyl LCM]
- Embryos in which the LCM compound is present (Maternal Dose 10 mg/kg): Embryo1 and 2
- Embryos in which the LCM compound is present (Maternal Dose 80 mg/kg): Embryo 5 and 6
- presence in the serum of mothers: detected in the serum of all mothers
- number of embryos in which detected (embryos from dams treated with 10 mg/kg and 80 mg/kg LCM): 2
